Laboratory results from publication PMC4748415, “Impact of different cell penetrating peptides on the efficacy of antisense therapeutics for targeting intracellular pathogens” (Scientific Reports, 2016).
“And” between values parts separate entries of the source, which are not always exact repeats. Equal values may be shown once. “Also recorded” adds a separate entry of the source. Read-outs that look alike come from different tables or passages of the source. Marks after values point to notes of the source that are not given here. Peptide text beside a SMILES is read from it.

How the values were obtained:
[1] = tested on: clinical isolates of L. monocytogenes; format: cell-based, Listeria monocytogenes
Method: (§1) The MICs of conjugated PNAs, free PNA, CPPs and untreated control against L. monocytogenes were determined using the broth microdilution method according to the Clinical and Laboratory Standards Institute (CLSI) guidelines with the following modifications. Briefly, low binding clear microcentrifuge tubes (USA scientific, Inc. Ocala, FL) were used in triplicates for each reaction instead of traditional 96-well plates. […] After a 16 hour incubation period (of test agent with bacteria), the number of viable bacteria was enumerated by serial dilution and counting on TSA plates. The MICs were repeated at least twice.

L. monocytogenes F4244 [2] = assay: Concentration-dependent bacterial log reduction in pure culture; format: cell-based, Listeria monocytogenes; settings: for Log CFU/ml: pure culture F4244, 16 hour incubation; for Log CFU reduction: relative to control, pure culture F4244
Method: as §1

L. monocytogenes F4244 [3] = assay: Time kill assay; format: cell-based, Listeria monocytogenes; settings: 8 μM PNA, 37 °C, samples every 20 minutes, inoculum 2.4 × 10^5 CFU/ml
[4] = tested on: L. monocytogenes J0161 in infected C. elegans; assay: C. elegans infection model; settings: 18 hours treatment; for Log CFUs/worm: 10 worms in triplicates; for Log CFUs reduction: versus water
L. monocytogenes F4244 [5] = assay: Time kill assay; format: cell-based, Listeria monocytogenes; settings: 12 hours; for time to complete eradication of Listeria: 32 μM PNA, 37 °C, samples every 2 hours, ~10^5 CFU/ml; for bactericidal or bacteriostatic activity: L. monocytogenes, time kill at 32 μM
Method: L. monocytogenes F4244 in logarithmic growth phase was diluted to ~10^5 CFU/ml and incubated with 32 μM of the five PNAs (in triplicates) at 37 °C for 12 hours. Samples were collected every two hours, serially diluted, and plated onto TSA plates. Plates were then incubated wat 37 °C for 24 hours before viable CFUs were determined.
Samples were collected every 20 minutes and processed as above.

[6] = tested on: L. monocytogenes F4244 inside infected J774A.1 cells; format: cell-based; settings: 4 hours; for Log CFU/ml: intracellular F4244 in J774A.1; for Log CFU reduction: intracellular F4244 in J774A.1, versus control
[7] = concentration required to inhibit 50% of L. monocytogenes isolates (six isolates)
[8] = strain ATCC 13932, broth microdilution in low binding tubes, triplicates, 16 hour incubation
[9] = strain ATCC 19111, broth microdilution in low binding tubes, triplicates, 16 hour incubation
[10] = strain ATCC 19112, broth microdilution in low binding tubes, triplicates, 16 hour incubation
[11] = strain ATCC 19114, broth microdilution in low binding tubes, triplicates, 16 hour incubation
[12] = strain F4244, broth microdilution in low binding tubes, triplicates, 16 hour incubation, no turbidity
[13] = strain J0161, broth microdilution in low binding tubes, triplicates, 16 hour incubation

Compound	MIC50 [1, 7] [µM]	MIC [1, 8] [µM]	MIC [1, 9] [µM]	MIC [1, 10] [µM]	MIC [1, 11] [µM]	MIC [1, 12] [µM]	MIC [1, 13] [µM]	Log CFU/ml (L. monocytogenes F4244 [2]; 1 µM PNA) [Log CFU/ml]	Log CFU reduction (L. monocytogenes F4244 [2]; 1 µM PNA) [Log CFU]	Log CFU/ml (L. monocytogenes F4244 [2]; 2 µM PNA) [Log CFU/ml]	Log CFU reduction (L. monocytogenes F4244 [2]; 2 µM PNA) [Log CFU]	Log CFU/ml (L. monocytogenes F4244 [2]; 4 µM PNA) [Log CFU/ml]	Log CFU reduction (L. monocytogenes F4244 [2]; 4 µM PNA) [Log CFU]	Log CFU/ml (L. monocytogenes F4244 [2]; 8 µM PNA)	Log CFU reduction (L. monocytogenes F4244 [2]; 8 µM PNA)	Log CFU/ml (L. monocytogenes F4244 [2]; 16 µM PNA)	Log CFUs/worm ([4]; 16 µM) [Log CFUs/worm]	Log CFUs reduction ([4]; 16 µM) [Log CFUs]	Log CFUs/worm ([4]; 32 µM) [Log CFUs/worm]	Log CFUs reduction ([4]; 32 µM) [Log CFUs]	also measured
RXRRXRRXRRXRXB [(RXR)4XB, cell penetrating peptide (RXR)4XB, reference compound]	>128	>128	>128	>128	>128	>128	>128														MIC ([1]; strain F4244, broth microdilution in low binding tubes, triplicates, 16 hour incubation, no turbidity, listed as RXR): no growth inhibition
N=C(N)NCCC[C@H](NC(=O)CN)C(=O)N[C@@H](CCCCN)C(=O)N[C@@H](CCCCN)C(=O)N[C@@H](CCCCN)C(=O)N[C@@H](CCCNC(=N)N)C(=O)N[C@@H](CCCNC(=N)N)C(=O)N[C@@H](CCC(N)=O)C(=O)N[C@@H](CCCNC(=N)N)C(=O)N[C@@H](CCCNC(=N)N)C(=O)N[C@@H](CCCNC(=N)N)C(=O)N[C@@H](Cc1ccc(O)cc1)C(=O)N[C@@H](CCCCN)C(=O)O [TAT, reference compound] (H-GRKKKRRQRRRYK-OH)																					MIC ([1]; clinical isolates of, 16 h): >128 µM; MIC50 ([1]; clinical isolates of, 16 h): >128 µM
RFRRFRRFRRFRXB-O-cgatcattcaaa-NH2 [PRFR, anti-rpoA PNA covalently conjugated to the (RFR)4XB CPP]	4	4	8	4	1	2	16	9.26±0.09	0.13	7.48±0.69	1.91	6.10±0.63	3.29	bacterial clearance; also recorded: Cleared	9.39 Log CFU	Cleared	2.85±0.60	1.3	1.86±0.26	2.52	Log CFU reduction (L. monocytogenes F4244 [2]; 16 µM PNA): 9.39 Log CFU; Log CFU/ml (L. monocytogenes F4244 [2]; 32 µM PNA): Cleared; Log CFU reduction (L. monocytogenes F4244 [2]; 32 µM PNA): 9.39 Log CFU; time to complete elimination of starting inoculum (L. monocytogenes F4244 [3]): ≤ 20 min; time to complete eradication of Listeria (L. monocytogenes F4244 [5]): ≤ 2 h; bactericidal or bacteriostatic activity (L. monocytogenes F4244 [5]): bactericidal activity; Log CFU/ml ([6]; 2 μM): 5.89 ± 0.65 Log CFU/ml; Log CFU reduction ([6]; 2 μM): 0.84 Log CFU; Log CFU/ml ([6]; 4 μM): 5.10 ± 0.28 Log CFU/ml; Log CFU reduction ([6]; 4 μM): 1.63* Log CFU; Log CFU/ml ([6]; 8 μM): 4.29 ± 0.04 Log CFU/ml; Log CFU reduction ([6]; 8 μM): 2.43* Log CFU
RQIKIWFQNRRMKWKK-O-cgatcattcaaa-NH2 [PANT, anti-rpoA PNA covalently conjugated to the antennapedia CPP]	32	32	32	32	1	16	32	9.30±0.06	0.095	9.27±0.21	0.119	9.14±0.05	0.25	8.09±0.95 Log CFU/ml	1.3 Log CFU and 1.30 Log CFU	6.73±0.48 Log CFU/ml	3.88±0.15	0.27	2.49±0.48	1.89	Log CFU reduction (L. monocytogenes F4244 [2]; 16 µM PNA): 2.66 Log CFU; Log CFU/ml (L. monocytogenes F4244 [2]; 32 µM PNA): bacterial clearance; also recorded: Cleared; Log CFU reduction (L. monocytogenes F4244 [2]; 32 µM PNA): 9.39 Log CFU; time to complete eradication of Listeria (L. monocytogenes F4244 [5]): 10 h; bactericidal or bacteriostatic activity (L. monocytogenes F4244 [5]): bactericidal activity; Log CFU/ml ([6]; 2 μM): 6.82 ± 0.02 Log CFU/ml; Log CFU reduction ([6]; 2 μM): −0.09 Log CFU; Log CFU/ml ([6]; 4 μM): 6.67 ± 0.05 Log CFU/ml; Log CFU reduction ([6]; 4 μM): 0.06 Log CFU; Log CFU/ml ([6]; 8 μM): 4.65 ± 0.34 Log CFU/ml; Log CFU reduction ([6]; 8 μM): 2.07 Log CFU
CNC(C)C1CCC(N)C(OC2C(N)CC(N)C(OC3OCC(C)(O)C(NC)C3O)C2O)O1 (centres unmarked) [Gentamicin, gentamicin, reference compound]																	3.52±0.55	0.63	2.18±0.6	2.2	
